Assay results: patent US20080070987A1, “META-XYLYLENEDIAMINE VANADATE SALTS” (priority 2006, published 2008)
“Also recorded” adds a separate entry of the source.

Tests used:
isolated rat adipocytes = assay: Glucose (2-deoxyglucose) transport in isolated rat adipocytes; type: cell-based, Wistar rats; settings: for effect of semicarbazide on the stimulation of glucose transport: 1 mM semicarbazide; for stimulation of glucose transport (2-DG uptake), in words: 45 min incubation; for stimulation of glucose transport compared with the combination of benzylamine and vanadate: combination 100 μM benzylamine and 100 μM vanadate
Description: FIG. 1 is a graphical illustration of the hexaquis(benzylammonium) decavanadate effects on glucose transport in isolated rat adipocytes. In this Figure, V corresponds to the rate of 2-deoxyglucose transport (expressed relative to the basal rate), and the results are mean +standard error of the mean (SEM). The adipocytes were incubated in the absence of stimulants in the following conditions: basal (1); in the presence of 100 nM insulin (2); in the presence of hexaquis(benzylammonium) decavanadate at concentrations of 0.5 μM (3), 1 μM (4), 2.5 μM (5), 5 μM (6), 10 μM (7), 25 μM (8), 50 μM (9), and 100 μM (10). The cells were also incubated in the presence of the semicarbazide inhibitor (1 mM), and 10 μM hexaquis(benzylammonium) decavanadate (11), 25 μM of hexaquis(benzylammonium) decavanadate (12) or 50 μM hexaquis(benzylammonium) decavanadate (13). In parallel, the cells were incubated in presence of 100 μM of sodium vanadate and 100 μM of benzylamine, in the absence (14) or in the presence of 1 mM of semicarbazide (15).
FIG. 2 is a graphical illustration of the effects of hexaquis(benzylammonium) decavanadate, pentaquis(benzylammonium) decavanadate and tetraquis(benzylammonium) decavanadate on glucose transport in isolated rat adipocytes. V corresponds to the rate of 2-deoxyglucose uptake (expressed as relation with basal group), and the results are mean +standard error mean. The adipocytes were incubated in the absence of stimulants in the following conditions: basal (1); in the presence of 100 nM of insulin (2); in the presence of hexaquis(benzylammonium) decavanadate at concentrations of 10 μM (3) and 25 μM (4), pentaquis(benzylammonium) decavanadate at concentrations of 10 μM (8) and 25 μM (9), and tetraquis(benzylammonium) decavanadate at concentrations of 10 μM (11) and 25 μM (12). The cells were also incubated in the presence of the semicarbazide inhibitor (1 mM) and, 25 μM of hexaquis(benzylammonium) decavanadate (5), 25 μM of pentaquis(benzylammonium) decavanadate (10) or 25 μM of tetraquis(benzylammonium) decavanadate (13). In parallel, the cells were incubated in the presence of 100 μM of sodium vanadate (6) or in the presence of 250 μM of sodium vanadate (7).
(§1) Adipose cells from Wistar rats were incubated for 45 minutes in basal conditions (Basal) or in the presence of 100 nM insulin (Ins) and different concentrations of. hexaquis(benzylammonium) decavanadate (B6V10) in the absence or in the presence of 1 mM semicarbazide (SCZ). Subsequently, 2-DG transport was measured over a 5 min. interval.
The effects of the three tested compounds (B6V10, B5V10 and B4V10) were compared. Adipose cells from Wistar rats were incubated for 45 minutes in basal conditions (Basal) or in the presence of 100 nM insulin (Ins), and different concentrations of decavanadate (V10), hexaquis(benzylammonium) decavanadate (B6V10), pentaquis(benzylammonium) decavanadate (B5V10) or tetraquis(benzylammonium) decavanadate (B4V10) in the absence or in the presence of 1 mM semicarbazide (SCZ). 2-DG transport was measured over 5 min. intervals.
In additional experiments, compounds shown in FIG. 6A, 2-(4-fluoro-phenyl)ethylamine (compound A), 3-phenylpropylamine (compound B), 4-fluoro-benzylamine (compound C) and 4-phenylbutylamine (compound D) were assessed using the experimental methods set forth above for the capacity to stimulate 2-DG uptake in isolated rat adipocytes. Adipose cells from Wistar rats were incubated for 45 minutes in basal conditions (Basal) or in the presence of 100 nM insulin (Ins), and different concentrations of vanadium salts of 2-(4-fluoro-phenyl)-ethylamine (compound A), 3-phenyl-propylamine (compound B), 4-fluoro-benzylamine (compound C) and 4-phenyl-butylamine (compound D). 2-DG transport was measured over 5 min.
The effects of incubation with semicarbazide or phosphatidylinositol 3-kinase inhibitors were also investigated. […]

[1] = tested on: protein kinase B / insulin receptor phosphorylation; assay: Intracellular insulin signalling in isolated rat adipocytes (protein kinase B and insulin receptor phosphorylation); type: cell-based, Wistar rats
Description: Isolated fat cells were disrupted for total membrane preparation by hypo-osmotic lysis in a 20 mM HES buffer and an antiprotease and antiphosphatase cocktail as reported by Abella et al. (2003, Diabetes 52: 1004-1013). Protein concentrations were determined by the Bradford method (Bradford, 1976, Anal. Biochem. 72: 248-254) with gamma-globulin as protein concentration standard. Immunoprecipitation and immunoblot assays were performed as previously described by Abella et al. (2004, Diabetologia 47: 429-438) with the use of a monoclonal antiphosphotyrosine antibody for the immunoprecipitation and an anti-insulin receptor antibody for immunobloting, respectively. SDS-polyacrylamide gel electrophoresis was performed on membrane proteins following conventional procedures. Proteins were transferred to Immobilon and immunoblotting was performed as reported by Castello et al. (1994, J. Biol. Chem. 269: 5905-5912).
The mechanism of action of B6V10 was investigated in isolated rat adipocytes. Adipose cells from Wistar rats were incubated for different times in the presence of 25 μM hexaquis(benzylammonium) decavanadate (B6V10). Cells were also incubated in the presence of insulin (100 nM, 45 min), decavanadate (25 μM, 45 min) or semicarbazide (1 mM, 45 min). Subsequently, 2-deoxyglucose uptake (results shown in FIG. 7A), tyrosine phosphorylation of insulin receptor (FIG. 7B), phospho-Thr^308-protein kinase B (FIG. 7C) and phospho-Ser^473-protein kinase B (FIG. 7D) was measured. […] The phosphorylation of protein kinase B induced by B6V10 was parallel to activation of glucose transport (FIGS. 7C and 7D).
The effects of incubation with semicarbazide or phosphatidylinositol 3-kinase inhibitors were also investigated. Adipose cells were incubated with B6V10 (25 μM, 45 min) in the absence or presence of wortmannin (2 μM, 45 min), LY294002 (10 μM, 45 min) or semicarbazide (1 mM, 45 min) and thereafter 2-deoxyglucose uptake was determined during 5 min.

[2] = tested on: isolated mouse adipocytes; assay: Glucose (2-deoxyglucose) transport in isolated mouse adipocytes; type: cell-based, FVB mice; settings: 100 μM
Description: as §1, with “FVB mice” for “Wistar rats”, “(Ins),” for “(Ins)”, “of” for “of.”, “(SCZ) and thereafter,” for “(SCZ). Subsequently,”, “over” for “over a”, “min.” for “min. interval.”

[3] = listed as hexaquis(benzylammonium) decavanadate

| Substance | stimulation of glucose transport, in words (isolated rat adipocytes; concentrations ranging from 5 to 50 μM) | phosphorylation (activation) of protein kinase B, in words ([1]; isolated rat adipocytes, 25 μM) | effect of semicarbazide on the stimulation of glucose transport (isolated rat adipocytes) | effect of semicarbazide on the stimulation of glucose transport (isolated rat adipocytes; [3]) | stimulation of glucose transport (2-DG uptake), in words (isolated rat adipocytes) | stimulation of glucose transport (2-DG uptake), in words (isolated rat adipocytes; [3]) | concentration from which stimulation of glucose transport is perceptible (isolated rat adipocytes; FIG. 1) [µM] | concentration of maximal effect on glucose transport (isolated rat adipocytes; FIG. 1) [µM] | EC50 (isolated rat adipocytes; FIG. 1, read-out: concentration of semimaximal effect on glucose transport) [nM] | stimulation of glucose transport compared with the combination of benzylamine and vanadate (isolated rat adipocytes) | stimulation of glucose transport compared with the combination of benzylamine and vanadate (isolated rat adipocytes; [3]) | maximal effect on glucose transport as % of the maximal stimulation caused by insulin (isolated rat adipocytes; insulin 100 nM) [%] | effect of semicarbazide on protein kinase B phosphorylation induced by the compound ([1]; 1 mM semicarbazide, 45 min) | earliest time at which protein kinase B phosphorylation was detectable ([1]; isolated rat adipocytes, 25 μM) [min] | tyrosine phosphorylation of insulin receptors ([1]; isolated rat adipocytes, 25 μM) | stimulation of glucose transport (% increase) [2] [%] |
| --- | --- | --- | --- | --- | --- | --- | --- | --- | --- | --- | --- | --- | --- | --- | --- | --- |
| sodium decavanadate [Example V10, reference compound] | did not stimulate glucose transport | not observed | – | – | – | – | – | – | – | – | – | – | – | – | – | – |
| hexaquis(benzylammonium) decavanadate [Example B6V10] | – | rapidly stimulated protein kinase B | completely blocked by semicarbazide; also recorded: blocked in the presence of semicarbazide | completely blocked by semicarbazide | concentration-dependent manner | pronounced stimulation on glucose transport | 0.5 | 2.5 | > 1000 | greater stimulation | greater than that produced by the presence of benzylamine and vanadate in combination | 85 | blocked by semicarbazide | 2.5 | undetectable | 93 |
